Values of other authors, collected in US20250339408A1, “TREATMENT AND PREVENTION OF BASAL CELL CARCINOMA WITH TOPICAL COMPOSITION COMPRISING PATIDEGIB” (Sol-Gel Technologies Ltd., priority 2023, published 2025).

System: patients with Gorlin Syndrome
Conditions: oral drugs; with and without PTCH1 mutation; cited from earlier work

## CS(=O)(=O)c1ccc(C(=O)Nc2ccc(Cl)c(-c3ccccn3)c2)c(Cl)c1 [Vismodegib]
  Effect in patients with Gorlin Syndrome (in words): known to effect patients with Gorlin Syndrome, both with and without PTCH1 mutation

## Cc1c(C(=O)Nc2ccc(N3C[C@@H](C)O[C@@H](C)C3)nc2)cccc1-c1ccc(OC(F)(F)F)cc1 [Sonidegib]
  Effect in patients with Gorlin Syndrome (in words): known to effect patients with Gorlin Syndrome, both with and without PTCH1 mutation
